Results from ChEMBL document CHEMBL1201862, “PubChem BioAssay data set” (2004).
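48-hour exposure; five concentrations; linearly interpolated endpoints. GI50: concentration for 50% inhibition of growth.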 Active and inactive are the calls of the source. Rule as the data show it: active = GI50 up to about 1.1 µM and inactive = higher.

What was measured:
Assay in all cases: growth of human tumour cells (NCI), 48 h
HOP-92 = test system: HOP-92
BT-549 = test system: BT-549
LOX IMVI = test system: LOX IMVI
IGROV-1 = test system: IGROV-1
ACHN = test system: ACHN
NCI-H226 = test system: NCI-H226
HT-29 = test system: HT-29
M14 = test system: M14
HCC 2998 = test system: HCC 2998
TK-10 = test system: TK-10
HCT-15 = test system: HCT-15
UACC-257 = test system: UACC-257
SN12C = test system: SN12C
NCI/ADR-RES = test system: NCI/ADR-RES
SK-MEL-28 = test system: SK-MEL-28
SK-MEL-5 = test system: SK-MEL-5
OVCAR-8 = test system: OVCAR-8
SW-620 = test system: SW-620
PC-3 = test system: PC-3
SNB-19 = test system: SNB-19
DU-145 = test system: DU-145
RXF 393 = test system: RXF 393
A498 = test system: A498
HCT-116 = test system: HCT-116
OVCAR-5 = test system: OVCAR-5
A549 = test system: A549
MCF7 = test system: MCF7
SF-295 = test system: SF-295
UACC-62 = test system: UACC-62
MOLT-4 = test system: MOLT-4
MDA-MB-435 = test system: MDA-MB-435
RPMI-8226 = test system: RPMI-8226
K562 = test system: K562
SK-OV-3 = test system: SK-OV-3
EKVX = test system: EKVX
OVCAR-3 = test system: OVCAR-3
CCRF-CEM = test system: CCRF-CEM
CAKI-1 = test system: CAKI-1
MDA-MB-231 = test system: MDA-MB-231
KM12 = test system: KM12
Malme-3M = test system: Malme-3M
NCI-H23 = test system: NCI-H23
SF-268 = test system: SF-268
HOP-62 = test system: HOP-62
UO-31 = test system: UO-31
NCI-H460 = test system: NCI-H460
MDA-N = test system: MDA-N
U-251 = test system: U-251
COLO 205 = test system: COLO 205
SK-MEL-2 = test system: SK-MEL-2
T47D = test system: T47D
OVCAR-4 = test system: OVCAR-4
786-0 = test system: 786-0
NCI-H522 = test system: NCI-H522
SF-539 = test system: SF-539
SNB-75 = test system: SNB-75
HL-60 = test system: HL-60

COc1cc2c(cc1OCCCCN1C(=O)c3cccc4cccc(c34)C1=O)N=C[C@@H]1CCCN1C2=O
GI50 (HOP-92): 6.18 µM (inactive)
GI50 (BT-549): 3.52 µM (inactive)
GI50 (LOX IMVI): 3.83 µM (inactive)
GI50 (IGROV-1): 2.07 µM (inactive)
GI50 (ACHN): 2.22 µM (inactive)
GI50 (NCI-H226): 8.36 µM (inactive)
GI50 (HT-29): 5.73 µM (inactive)
GI50 (M14): 5.56 µM (inactive)
GI50 (HCC 2998): 6.97 µM (inactive)
GI50 (TK-10): 2.47 µM (inactive)
GI50 (HCT-15): 3.99 µM
GI50 (UACC-257): 7.05 µM (inactive)
GI50 (SN12C): 3.53 µM (inactive)
GI50 (NCI/ADR-RES): 6.52 µM (inactive)
GI50 (SK-MEL-28): 11.7 µM (inactive)
GI50 (SK-MEL-5): 2.01 µM (inactive)
GI50 (OVCAR-8): 3.11 µM (inactive)
GI50 (SW-620): 4.92 µM (inactive)
GI50 (PC-3): 5.27 µM (inactive)
GI50 (SNB-19): 6.17 µM (inactive)
GI50 (DU-145): 4.01 µM (inactive)
GI50 (RXF 393): 2.09 µM (inactive)
GI50 (A498): 7.66 µM (inactive)
GI50 (HCT-116): 3.59 µM (inactive)
GI50 (OVCAR-5): 4.95 µM (inactive)
GI50 (A549): 5.68 µM (inactive)
GI50 (MCF7): 1.69 µM (inactive)
GI50 (SF-295): 6.04 µM (inactive)
GI50 (UACC-62): 3.47 µM (inactive)
GI50 (MOLT-4): 3.25 µM (inactive)
GI50 (MDA-MB-435): 3.83 µM (inactive)
GI50 (RPMI-8226): 2.69 µM (inactive)
GI50 (K562): 4.15 µM (inactive)
GI50 (SK-OV-3): 9.48 µM (inactive)
GI50 (EKVX): 17.1 µM (inactive)
GI50 (OVCAR-3): 3.4 µM (inactive)
GI50 (CCRF-CEM): 1.64 µM (inactive)
GI50 (CAKI-1): 2.58 µM (inactive)
GI50 (MDA-MB-231): 3.53 µM (inactive)
GI50 (KM12): 3.57 µM (inactive)
GI50 (Malme-3M): 3.72 µM (inactive)
GI50 (NCI-H23): 3.74 µM (inactive)
GI50 (SF-268): 4.92 µM (inactive)
GI50 (HOP-62): 7.73 µM (inactive)
GI50 (UO-31): 1.68 µM (inactive)
GI50 (NCI-H460): 3.96 µM (inactive)
GI50 (MDA-N): 2.31 µM (inactive)
GI50 (U-251): 3.24 µM (inactive)
GI50 (COLO 205): 2.72 µM (inactive)
GI50 (SK-MEL-2): 3.47 µM (inactive)
GI50 (T47D): 7.93 µM (inactive)
GI50 (OVCAR-4): 3.27 µM (inactive)
GI50 (786-0): 2.64 µM (inactive)
GI50 (NCI-H522): 1.68 µM (inactive)
GI50 (SF-539): 2.55 µM (inactive)

COC(=O)c1cc(NC(=O)c2cc(NC(=O)Cc3c[nH]c4ccccc34)cn2C)cn1C
GI50 (BT-549): 37.3 µM (inactive)
GI50 (LOX IMVI): 32 µM (inactive)
GI50 (SNB-75): 20.5 µM (inactive)
GI50 (ACHN): 35.7 µM (inactive)
GI50 (NCI-H226): 30.8 µM (inactive)
GI50 (HT-29): 22.2 µM (inactive)
GI50 (M14): 33 µM (inactive)
GI50 (TK-10): 31.5 µM (inactive)
GI50 (HCT-15): 42.8 µM
GI50 (SN12C): 33.4 µM (inactive)
GI50 (NCI/ADR-RES): > 100 µM (inactive)
GI50 (SK-MEL-28): 35.9 µM (inactive)
GI50 (SK-MEL-5): 16 µM (inactive)
GI50 (OVCAR-8): 39.4 µM (inactive)
GI50 (SW-620): 57.1 µM (inactive)
GI50 (PC-3): 19.1 µM (inactive)
GI50 (SNB-19): 21.8 µM (inactive)
GI50 (DU-145): > 100 µM (inactive)
GI50 (RXF 393): 31.3 µM (inactive)
GI50 (A498): 24 µM (inactive)
GI50 (HCT-116): 27.2 µM (inactive)
GI50 (OVCAR-5): 39.3 µM (inactive)
GI50 (A549): 29.4 µM (inactive)
GI50 (MCF7): 36.5 µM (inactive)
GI50 (SF-295): 36.3 µM (inactive)
GI50 (UACC-62): 20.2 µM (inactive)
GI50 (MOLT-4): 30.7 µM (inactive)
GI50 (MDA-MB-435): 30.3 µM (inactive)
GI50 (RPMI-8226): 20.5 µM (inactive)
GI50 (K562): 44.4 µM (inactive)
GI50 (SK-OV-3): 40 µM (inactive)
GI50 (EKVX): 22.2 µM (inactive)
GI50 (OVCAR-3): 41.9 µM (inactive)
GI50 (CCRF-CEM): 32.7 µM (inactive)
GI50 (CAKI-1): 57.1 µM (inactive)
GI50 (MDA-MB-231): 25.9 µM (inactive)
GI50 (KM12): 24.3 µM (inactive)
GI50 (Malme-3M): 21.1 µM (inactive)
GI50 (NCI-H23): 24.3 µM (inactive)
GI50 (SF-268): 42.6 µM (inactive)
GI50 (HOP-62): > 100 µM (inactive)
GI50 (UO-31): 23.5 µM (inactive)
GI50 (NCI-H460): 30.5 µM (inactive)
GI50 (HL-60): 34.6 µM (inactive)
GI50 (MDA-N): 37.2 µM (inactive)
GI50 (COLO 205): 24.2 µM (inactive)
GI50 (SK-MEL-2): 19.6 µM (inactive)
GI50 (T47D): > 100 µM (inactive)
GI50 (OVCAR-4): 43.1 µM (inactive)
GI50 (786-0): 56.9 µM (inactive)
GI50 (SF-539): 56.4 µM (inactive)
